Reference: patent US8501781B2 (priority 2009, dated 2013)
Read-outs that look alike come from different tables or passages of the source. Marks after values point to notes of the source that are not given here.

Assay: logP by HPLC (EEC Directive 79/831 Annex V.A8)
Assay type: physicochemical
[1] = [b] LC-MS, acidic range, pH 2.7, 0.1% aqueous formic acid and acetonitrile
[2] = pH 2.7, given in the preparation examples, read-out: log P (pH 2.7)
[3] = [c] LC-MS, neutral range, pH 7.8, 0.001 molar aqueous ammonium bicarbonate and acetonitrile

Row | SMILES | logP [1] | further results
1 | O=C(Oc1cccc2ccccc12)c1csc(C2CCN(C(=O)Cc3cccc(C(F)(F)F)c3)CC2)n1 [Example 1] | 4.16^[b] | –
2 | O=C(OC1CCCCC1)c1csc(C2CCN(C(=O)Cc3cccc(C(F)(F)F)c3)CC2)n1 [Example 2] | 4.21^[b] | –
3 | CCCCC(=O)N1CCC(c2nc(C(=O)Oc3cccc4ccccc34)cs2)CC1 [Example 3] | 3.66^[b] | –
4 | CCCCC(=O)N1CCC(c2nc(C(=O)OC3CCCCC3)cs2)CC1 [Example 4] | 3.64^[b] | –
5 | Cn1ncc(CC(=O)N2CCC(c3nc(C(=O)Oc4cccc5ccccc45)cs3)CC2)c1Cl [Example 5] | 3.00^[b] | –
6 | Cn1ncc(CC(=O)N2CCC(c3nc(C(=O)OC4CCCCC4)cs3)CC2)c1Cl [Example 6] | 2.93^[b] | –
7 | O=C(Oc1cccc2ccccc12)c1csc(C2CCN(C(=O)Cc3ccsc3)CC2)n1 [Example 7] | 3.46^[b] | –
8 | O=C(OC1CCCCC1)c1csc(C2CCN(C(=O)Cc3ccsc3)CC2)n1 [Example 8] | 3.42^[b] | –
9 | O=C(OC1CCCCC1)c1csc(C2CCN(C(=O)Cc3cccc(Cl)c3)CC2)n1 [Example 9] | 4.04^[b] | –
10 | O=C(Oc1cccc2ccccc12)c1csc(C2CCN(C(=O)Cc3cccc(Cl)c3)CC2)n1 [Example 10] | 4.01^[b] | –
11 | O=C(Oc1cccc2ccccc12)c1csc(C2CCN(C(=O)Cc3cc(C(F)(F)F)ccc3Cl)CC2)n1 [Example 11] | 4.56^[b] | –
12 | O=C(OC1CCCCC1)c1csc(C2CCN(C(=O)Cc3cc(C(F)(F)F)ccc3Cl)CC2)n1 [Example 12] | 4.64^[b] | –
13 | O=C(OC1CCCCC1)c1csc(C2CCN(C(=O)Cc3cc(C(F)(F)F)ccc3Br)CC2)n1 [Example 13] | 4.75^[b] | –
14 | O=C(OC1CCCCC1)c1csc(C2CCN(C(=O)Cc3cc(Cl)ccc3Cl)CC2)n1 [Example 14] | 4.49^[b] | –
15 | O=C(OC1CCCCC1)c1csc(C2CCN(C(=O)Cc3cc(Br)ccc3Br)CC2)n1 [Example 15, Cyclohexyl 2-{1-[(2,5-dibromophenyl)acetyl]piperidin-4-yl}-1,3-thiazole-4-carboxylate] | – | chromatographic logP [2]: 4.72
16 | O=C(OC1CCCCC1)c1csc(C2CCN(C(=O)Cc3cc(C(F)(F)F)ccc3C(F)(F)F)CC2)n1 [Example 16] | 4.81^[b] | –
17 | Cc1ccc(Br)cc1CC(=O)N1CCC(c2nc(C(=O)OC3CCCCC3)cs2)CC1 [Example 17] | 4.47^[b] | –
18 | O=C(OC1CCCCC1)c1csc(C2CCN(C(=O)Cc3cc(Cl)ccc3C(F)(F)F)CC2)n1 [Example 18] | 4.68^[b] | –
19 | Cc1ccc(I)cc1CC(=O)N1CCC(c2nc(C(=O)OC3CCCCC3)cs2)CC1 [Example 19] | 4.66^[b] | –
20 | Cc1cc(CC(=O)N2CCC(c3nc(C(=O)OC4CCCCC4)cs3)CC2)c(C)s1 [Example 20] | 4.24^[b] | –
21 | Cc1sc(-c2ccccc2)nc1CC(=O)N1CCC(c2nc(C(=O)OC3CCCCC3)cs2)CC1 [Example 21] | 4.57^[b] | –
22 | Cc1oc(-c2ccccc2)nc1CC(=O)N1CCC(c2nc(C(=O)OC3CCCCC3)cs2)CC1 [Example 22] | 4.15^[b] | –

Row | SMILES | logP [1] | further results
23 | Cc1sc(-c2ccccc2)nc1CC(=O)N1CCC(c2nc(C(=O)Oc3cccc4ccccc34)cs2)CC1 [Example 23] | 4.43^[b] | –
24 | Cc1oc(-c2ccccc2)nc1CC(=O)N1CCC(c2nc(C(=O)Oc3cccc4ccccc34)cs2)CC1 [Example 24] | 4.04^[b] | –
25 | Cc1cc(CC(=O)N2CCC(c3nc(C(=O)Oc4cccc5ccccc45)cs3)CC2)c(C)s1 [Example 25] | 4.12^[b] | –
26 | Cc1nc(CC(=O)N2CCC(c3nc(C(=O)Oc4cccc5ccccc45)cs3)CC2)c(C)s1 [Example 26] | 3.10^[b] | –
27 | Cc1nc(CC(=O)N2CCC(c3nc(C(=O)OC4CCCCC4)cs3)CC2)c(C)s1 [Example 27] | 3.02^[b] | –
28 | Cc1nc(C)n(CC(=O)N2CCC(c3nc(C(=O)Oc4cccc5ccccc45)cs3)CC2)n1 [Example 28] | 2.17^[b] | –
29 | Cc1nc(C)n(CC(=O)N2CCC(c3nc(C(=O)OC4CCCCC4)cs3)CC2)n1 [Example 29] | 2.08^[b] | –
30 | O=C(OC1CCCCC1)c1csc(C2CCN(S(=O)(=O)Cc3cc(F)ccc3F)CC2)n1 [Example 30, Cyclohexyl 2-{1-[(2,5-difluorobenzyl)sulphonyl]piperidin-4-yl}-1,3-thiazole-4-carboxylate] | – | chromatographic logP [2]: 4.05
31 | Cc1cc(C(F)(F)F)nn1CC(=O)N1CCN(c2nc(C(=O)OC(C)c3cc(Cl)ccc3Cl)cs2)CC1 (stereo not drawn) [Example 31] | 4.28^[b] | –
32 | Cc1cc(C(F)(F)F)nn1CC(=O)N1CCN(c2nc(C(=O)OC3CCCC(C(F)(F)F)C3)cs2)CC1 (stereo not drawn) [Example 32] | – | logP [3]: 3.81^[c]
33 | Cc1cc(C(F)(F)F)nn1CC(=O)N1CCN(c2nc(C(=O)Sc3cc(C(F)(F)F)ccc3Cl)cs2)CC1 [Example 33] | 4.51^[b] | –
34 | Cc1cc(C(F)(F)F)nn1CC(=O)N1CCN(c2nc(C(=O)SC3CCCCC3)cs2)CC1 [Example 34] | – | logP [3]: 4.43^[c]
35 | COc1ccc(COC(=O)c2csc(N3CCN(C(=O)Cn4nc(C(F)(F)F)cc4C)CC3)n2)cc1 [Example 35] | – | logP [3]: 3.19^[c]
36 | Cc1cc(C(F)(F)F)nn1CC(=O)N1CCN(c2nc(C(=O)Oc3cccc4cccnc34)cs2)CC1 [Example 36] | 2.85 | logP [3]: 2.83
37 | Cc1cc(C(F)(F)F)nn1CC(=O)N1CCN(c2nc(C(=O)Oc3ccc(Cl)cc3Cl)cs2)CC1 [Example 37] | 3.96 | logP [3]: 3.87
38 | Cc1ccc(C(F)(F)F)cc1OC(=O)N1CCC(c2nc(C(=O)OC3CCCCC3)cs2)CC1 [Example 38, 2-Methyl-5-(trifluoromethyl)phenyl 4-{4-[(cyclohexyloxy)carbonyl]-1,3-thiazol-2-yl}piperidine-1-carboxylate] | – | chromatographic logP [2]: 5.28
39 | Cc1cc(C(F)(F)F)nn1CC(=O)N1CCN(c2nc(C(=O)Oc3ccccc3Cl)cs2)CC1 [Example 39] | 3.46 | logP [3]: 3.41
40 | Cc1cc(C(F)(F)F)nn1CC(=O)N1CCN(c2nc(C(=O)Oc3ccc4ccccc4c3)cs2)CC1 [Example 40] | 3.81 | logP [3]: 3.76
41 | Cc1cc(C(F)(F)F)nn1CC(=O)N1CCN(c2nc(C(=O)OC3Cc4ccccc4C3)cs2)CC1 [Example 41] | 3.64 | logP [3]: 3.56
42 | Cc1cc(C(F)(F)F)nn1CC(=O)N1CCN(c2nc(C(=O)OC3CCc4ccccc4C3)cs2)CC1 (stereo not drawn) [Example 42] | 3.87 | logP [3]: 3.82
43 | Cc1cc(C(F)(F)F)nn1CC(=O)N1CCN(c2nc(C(=O)OC3CCCc4ccccc43)cs2)CC1 (stereo not drawn) [Example 43] | 3.98 | logP [3]: 3.91
44 | Cc1cc(C(F)(F)F)nn1CC(=O)N1CCN(c2nc(C(=O)OCc3ccc(Cl)cc3Cl)cs2)CC1 [Example 44] | 4.12^[c]; 4.12^[b] | logP [3]: 4.12^[c]; 4.12^[b]

Row | SMILES | logP [1] | further results
45 | Cc1cc(C(F)(F)F)nn1CC(=O)N1CCN(c2nc(C(=O)Sc3ccc4ccccc4c3)cs2)CC1 [Example 45] | 4.33^[c]; 4.33^[b] | logP [3]: 4.33^[c]; 4.33^[b]
46 | Cc1cc(C(F)(F)F)nn1CC(=O)N1CCN(c2nc(C(=O)OC3CCCCC3)cs2)CC1 [Example 46, Cyclohexyl 2-(4-{[5-methyl-3-(trifluoromethyl)-1H-pyrazol-1-yl]acetyl}piperazin-1-yl)-1,3-thiazole-4-carboxylate] | – | chromatographic logP ([c] LC-MS, neutral range, pH 7.8, 0.001 molar aqueous ammonium bicarbonate and acetonitrile, read-out: logP): 3.68; chromatographic logP [2]: 3.69
47 | Cc1cc(C(F)(F)F)nn1CC(=O)N1CCN(c2nc(C(=O)Sc3ccc(Cl)cc3Cl)cs2)CC1 [Example 47] | 4.49 | logP [3]: 4.5
48 | Cc1cc(C(F)(F)F)nn1CC(=O)N1CCN(c2nc(C(=O)OCc3ccccc3Cl)cs2)CC1 [Example 48] | 3.64^[c]; 3.64^[b] | logP [3]: 3.64^[c]; 3.64^[b]
49 | Cc1cc(C(F)(F)F)nn1CC(=O)N1CCN(c2nc(C(=O)SCc3ccccc3Cl)cs2)CC1 [Example 49] | 4.29 | logP [3]: 4.32
50 | Cc1cc(C(F)(F)F)nn1CC(=O)N1CCN(c2nc(C(=O)SCc3ccc(Cl)cc3Cl)cs2)CC1 [Example 50] | 4.79 | logP [3]: 4.87
51 | Cc1cc(C(F)(F)F)nn1CC(=O)N1CCN(c2nc(C(=O)OCc3c(F)cccc3F)cs2)CC1 [Example 51] | 3.28 | logP [3]: 3.33
52 | O=C(OC1CCCCC1)c1csc(C2CCN(C(=O)Cc3nc(C(F)(F)F)ccc3Cl)CC2)n1 [Example 52] | 4.08^[b] | –
53 | Cc1cc(C(F)(F)F)nn1CC(=O)N1CCN(c2nc(C(=O)OCc3ccc(F)cc3F)cs2)CC1 [Example 53] | 3.42 | logP [3]: 3.45
54 | Cc1cc(C(F)(F)F)nn1CC(=O)N1CCN(c2nc(C(=O)OC(C)C3CCCCC3)cs2)CC1 (stereo not drawn) [Example 54] | 4.4 | logP [3]: 4.46
55 | O=C(OC1CCCCC1)c1csc(C2CCN(C(=O)C(=O)c3cccs3)CC2)n1 [Example 55] | 3.46^[b] | –
56 | O=C(OC1CCCCC1)c1csc(C2CCN(C(=O)CC3CCCC(C(F)(F)F)C3)CC2)n1 (stereo not drawn) [Example 56] | 4.58^[b] | –
57 | O=C(OC1CCCCC1)c1csc(C2CCN(C(=O)CCCC(F)(F)C(F)(F)F)CC2)n1 [Example 57] | 4.22^[b] | –
58 | CCCCCCC(=O)N1CCC(c2nc(C(=O)OC3CCCCC3)cs2)CC1 [Example 58] | 4.51^[b] | –
59 | Cc1ccc(C)c(NC(=O)N2CCC(c3nc(C(=O)OC4CCCCC4)cs3)CC2)c1 [Example 59, Cyclohexyl 2-{1-[(2,5-dimethylphenyl)carbamoyl]piperidin-4-yl}-1,3-thiazole-4-carboxylate] | – | chromatographic logP [2]: 3.82
60 | O=C(OC1CCCCC1)c1csc(C2CCN(C(=O)C(=O)c3ccco3)CC2)n1 [Example 60] | 3.07^[b] | –
61 | O=C(OC1CCCCC1)c1csc(C2CCN(C(=O)Nc3cc(C(F)(F)F)ccc3Cl)CC2)n1 [Example 61] | 4.76^[b] | –
62 | Cc1ccc(Cl)c(NC(=O)N2CCC(c3nc(C(=O)OC4CCCCC4)cs3)CC2)c1 [Example 62] | 4.30^[b] | –
63 | Cc1ccc(C)c(NC(=S)N2CCC(c3nc(C(=O)OC4CCCCC4)cs3)CC2)c1 [Example 63] | 4.17^[b] | –
64 | Cc1ccc(F)c(NC(=O)N2CCC(c3nc(C(=O)OC4CCCCC4)cs3)CC2)c1 [Example 64] | 3.81^[b] | –
